Tested on: HCT116 MTAP^−/− cells
Assay: Determination of intracellular SAM level by LC-MS/MS
Format: cell-based
Details: Homo sapiens, HCT-116, 6 h, read-out: SAM production inhibitory activity IC50
Protocol: Test Example 2. Determination of Intracellular SAM Level
The brief introduction of the test principle: After the test MAT2A inhibitor was incubated with cancer cells for a period of time, the cells were lysed with a stop reagent to quench the activity of the MAT2A enzyme. The catalytic product SAM of MAT2A in the cell lysate was quantitatively determined by LC-MS/MS, and thus the activity of MAT2A in the cell was reflected.
Reference: The experiment referred to the method disclosed in patent WO2018045071.
Material and cell: HCT116 MTAP^−/− cells were purchased from KYinno; fetal bovine serum, McCoy's 5a culture medium, and penicillin-streptomycin were purchased from Gibco Company (U.S.), and 96-well plates were purchased from Corning Company (U.S.).
Cell culture: HCT116 MTAP^−/− cells were cultured with a McCoy's 5a medium containing 10% fetal bovine serum+1% penicillin-streptomycin at 37° C. with 5% CO2. Cells at logarithmic growth phase were available for the experiment.
LC-MS/MS detection: The effect of the compound on the SAM production level in HCT116 MTAP^−/− cell strains was detected by LC-MS/MS. The cells were adjusted to a concentration of 50000 cells per well, seeded on a 96-well plate, and incubated overnight at 37° C. with 5% CO2. In the experimental group, the test compound was dissolved in DMSO, diluted sequentially with DMSO and a culture medium, and transferred to a cell plate at a final concentration of 10 μM, 3-fold dilution. The cells were continuously cultured at 37° C. with 5% CO2 for 6 h. The supernatant was pipetted off. After the cells were washed once with PBS, glacial acetic acid was added to lyse the cells. After the lysate was processed, the SAM concentration was determined by LC-MS/MS analysis.
A negative control group and a positive control group were respectively used as Bottom and Top. The negative control group was added with 10 μM positive compound (compound 072 of Example 51 of patent WO2021139775A1) in the same volume, and other operations were consistent with those of the experimental group. The positive control group was not added with the test compound, only added with DMSO in the same volume, and other operations were consistent with those of the experimental group.
The % Compound inhibition was calculated and fitted to give the IC50 of the compound.
% Compound inhibition=1−100%×(Signal−Bottom)/(Top−Bottom)
Signal referred to the signal value of the experimental group, Bottom referred to the average signal value of the negative control group, and Top referred to the average signal value of the positive control group.

Row | SMILES | IC50 [nM]
1 | Cc1ncccc1-n1c(=O)c2ncn(C)c2c2ccc(C(F)(F)F)nc21 (atropisomer, axis not shown) [Compound 20, 1-methyl-5-(2-methylpyridin-3-yl)-7-(trifluoromethyl)-1,5-dihydro-4H-imidazo[4,5-c][1,8]naphthyridin-4-one] | 3
2 | Cn1cnc2c(=O)n(-c3cccc(F)c3Cl)c3nc(C(F)(F)F)ccc3c21 (atropisomer, axis not shown) [Compound 25, 5-(2-chloro-3-fluorophenyl)-1-methyl-7-(trifluoromethyl)-1,5-dihydro-4H-imidazo[4,5-c][1,8]naphthyridin-4-one] | 4.4
3 | Cn1cnc2c(=O)n(-c3cccc(F)c3Cl)c3nc(C(F)(F)F)ccc3c21 (single isomer, unassigned) [Compound 25-P2, 5-(2-chloro-3-fluorophenyl)-1-methyl-7-(trifluoromethyl)-1,5-dihydro-4H-imidazo[4,5-c][1,8]naphthyridin-4-one] | 2.8
4 | Cn1cnc2c(=O)n(-c3cccnc3C(F)(F)F)c3nc(C(F)(F)F)ccc3c21 (single isomer, unassigned) [Compound 41-P2, 1-methyl-7-(trifluoromethyl)-5-(2-(trifluoromethyl)pyridin-3-yl)-1,5-dihydro-4H-imidazo[4,5-c][1,8]naphthyridin-4-one] | 4.6
5 | Cn1cnc2c(=O)n(-c3cccnc3C3CC3)c3cc(Cl)ccc3c21 (single isomer, unassigned) [Compound 49-P2, 7-chloro-5-(2-cyclopropylpyridin-3-yl)-1-methyl-1,5-dihydro-4H-imidazo[4,5-c]quinolin-4-one] | 1.9
